Key:
[1] = target: T1, DDR1 kinase in DDR1-expressing U2OS cells (Homo sapiens, UniProt Q08345); assay: DDR1 kinase inhibitory effect in DDR1-expressing U2OS cells (PathHunter, type I collagen stimulation); type: cell-based; settings: type I collagen 50 μg/mL, 10% FBS, read-out: DDR-1 IC50
T1 construct: host or cells: U2OS
Description: Test compounds in DMSO were prepared at 10 mM and diluted with DMSO to final concentrations of 1000, 100, 10, 1, and 0.1 μM. These solutions were diluted further with E-MEM medium (Fujifilm Wako Pure Chemical Industries, 051-07615) containing 10% fetal bovine serum (FBS, Gibco, 10270106) to 60,000, 6,000, 600, 60, 6, and 0.6 nM to obtain test sample solutions.
DDR1-expressing U2OS cells (DiscoverX, 93-0894C3) suspended at 2.5×10^5 cells/mL in 10% FBS+E-MEM medium were seeded in 384-well plates (DiscoverX, 92-0013) in 20 μL portions and cultured overnight at 37° C. and 5% CO2.
The next day, the test sample solutions as prepared were added at 5 μL/well to final concentrations of 10,000, 1,000, 100, 10, 1, and 0.1 nM. After incubation at 37° C. and 5% CO2 for 1 hour, type I collagen (Nitta Gelatin, 631-00771) was added at 5 μL/well to a final concentration of 50 μg/mL, and cultured overnight at 37° C. and 5% CO2.
The next day, the plate was left at room temperature for 1 hour, after which 5 μL/well of detection solution was added according to the instruction manual for the PathHunter (registered trademark) Detection Kit (DiscoverX, 93-0001). […] The test was performed in duplicate.

DDR1 protein = target: T2, DDR1 protein (Homo sapiens, UniProt Q08345); assay: Evaluation of DDR1 kinase inhibitory activity (LANCE Ultra TR-FRET); type: biochemical; settings: DDR1 protein 0.5 nM, ATP 100 μM, 2 hours at room temperature; read-out: DDR-1 IC50
T2 construct: purchased Carna Biosciences 08-113
T2 sequence (Q08345 19-876 isoform Q08345-2 limits assumed): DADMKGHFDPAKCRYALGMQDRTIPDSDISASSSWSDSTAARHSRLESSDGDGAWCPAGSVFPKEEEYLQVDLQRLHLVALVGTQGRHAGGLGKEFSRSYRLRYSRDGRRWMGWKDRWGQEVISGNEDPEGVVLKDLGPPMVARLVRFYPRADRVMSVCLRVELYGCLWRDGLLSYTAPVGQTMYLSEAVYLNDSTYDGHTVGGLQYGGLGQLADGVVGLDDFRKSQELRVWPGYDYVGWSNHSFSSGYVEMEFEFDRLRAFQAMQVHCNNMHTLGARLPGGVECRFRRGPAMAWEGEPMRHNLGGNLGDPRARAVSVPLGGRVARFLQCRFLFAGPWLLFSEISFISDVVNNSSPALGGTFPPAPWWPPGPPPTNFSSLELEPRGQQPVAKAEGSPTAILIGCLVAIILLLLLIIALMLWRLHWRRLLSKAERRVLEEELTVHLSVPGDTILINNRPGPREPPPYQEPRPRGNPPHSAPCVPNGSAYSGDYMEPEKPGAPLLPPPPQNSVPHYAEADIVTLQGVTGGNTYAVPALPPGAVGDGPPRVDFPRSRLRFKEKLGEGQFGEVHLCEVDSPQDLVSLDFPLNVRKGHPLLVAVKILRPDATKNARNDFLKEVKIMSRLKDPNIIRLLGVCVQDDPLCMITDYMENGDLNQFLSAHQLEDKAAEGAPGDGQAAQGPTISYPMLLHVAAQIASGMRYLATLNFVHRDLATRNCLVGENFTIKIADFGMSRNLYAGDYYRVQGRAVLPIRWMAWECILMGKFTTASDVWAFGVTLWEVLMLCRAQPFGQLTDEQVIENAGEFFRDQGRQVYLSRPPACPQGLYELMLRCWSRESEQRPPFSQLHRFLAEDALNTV
Description: The test was performed in duplicate.

[2] = tested on: anti-glomerular basement membrane antibody-induced nephritis model; assay: In vivo efficacy study using anti-glomerular basement membrane antibody-induced nephritis model; parameters: species or system WKY/NCrlCrlj rats; settings: rat, 24-hour urine
Description: The test compound was weighed and suspended in 0.5% methylcellulose (Shin-Etsu Chemical Co., Ltd.)+99.5% Otsuka distilled water (Otsuka Pharmaceutical Factory) to prepare a test sample solution for administration. 300 μL of phosphate buffered saline (Wako, 045-29795) containing 33.3 μg/mL anti-glomerular basement membrane antibody (Chondrex, 70221) was intravenously administered into the tail vein of WKY/NCrlCrlj rats (7-week-old males). 7 days after, the test sample was administered twice a day for 7 days, and the rats were moved to a metabolism/urine collection cage from the 6th to 7th days of the starting of the administration, and the 24-hour urine was collected. The weight of the collected urine was measured. 150 μL of urine was transferred to a sample cup (650-M, BMBio ST). The albumin concentration in urine was measured using a JCA-BM6050 automatic analyzer (JEOL). The amount of albumin in urine was determined with correction for the measured urine weight. The amounts of albumin in urine in the group without administration of anti-glomerular basement membrane antibody and the group with administration of vehicle were set at 0% and 100%, respectively, and the ratio of the amount of albumin in urine in the group administered with the test compound was calculated.

[3] = dose 10 mg/kg twice a day for 7 days
[4] = dose 50 mg/kg twice a day for 7 days

T1 sequence (Q08345 19-913): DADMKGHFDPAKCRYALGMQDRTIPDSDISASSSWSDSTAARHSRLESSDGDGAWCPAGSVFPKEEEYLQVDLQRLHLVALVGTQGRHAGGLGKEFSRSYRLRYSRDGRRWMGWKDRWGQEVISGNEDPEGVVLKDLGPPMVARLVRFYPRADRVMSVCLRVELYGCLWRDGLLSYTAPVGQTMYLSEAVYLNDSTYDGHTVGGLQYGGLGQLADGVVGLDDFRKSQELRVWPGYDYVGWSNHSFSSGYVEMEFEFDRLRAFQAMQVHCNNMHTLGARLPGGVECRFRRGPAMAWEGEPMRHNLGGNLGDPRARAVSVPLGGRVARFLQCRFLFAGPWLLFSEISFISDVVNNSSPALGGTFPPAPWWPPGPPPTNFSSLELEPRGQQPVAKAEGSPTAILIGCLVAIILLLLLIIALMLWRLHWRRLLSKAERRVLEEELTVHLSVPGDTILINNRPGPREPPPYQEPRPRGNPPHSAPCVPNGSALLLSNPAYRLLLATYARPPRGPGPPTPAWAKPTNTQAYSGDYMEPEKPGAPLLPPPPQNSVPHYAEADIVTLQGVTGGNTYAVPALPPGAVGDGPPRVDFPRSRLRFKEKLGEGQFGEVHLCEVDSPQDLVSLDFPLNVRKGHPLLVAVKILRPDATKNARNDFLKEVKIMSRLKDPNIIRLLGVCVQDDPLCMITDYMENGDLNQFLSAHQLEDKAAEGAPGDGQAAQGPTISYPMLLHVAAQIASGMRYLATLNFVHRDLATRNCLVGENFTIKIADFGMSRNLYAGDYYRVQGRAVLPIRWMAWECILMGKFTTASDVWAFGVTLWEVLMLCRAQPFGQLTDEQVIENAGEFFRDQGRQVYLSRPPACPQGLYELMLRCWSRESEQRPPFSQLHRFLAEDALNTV

Row | IC50 [1] | IC50 (DDR1 protein) | SMILES | also measured
1 | 1.8 nM | 0.25 nM | COc1nc(N)ncc1C#Cc1cc(C(=O)N[C@H]2C[C@H](OC(F)(F)F)C[C@@H]2O)ccc1OC(F)F [Example 5, 3-[2-(2-Amino-4-methoxypyrimidin-5-yl)ethynyl]-4-(difluoromethoxy)-N-[(1S,2S,4S)-2-hydroxy-4-(trifluoromethoxy)cyclopentyl]benzamide] | Urinary albumin (% of vehicle-administered group) [2, 3]: 57 % of vehicle-administered grou
2 | 50 nM | 4.4 nM | Nc1cnc(C#Cc2cc(C(=O)N[C@H](CO)CCOC(F)(F)F)ccc2OC(F)F)cn1 [Example 7, 3-[2-(5-Aminopyrazin-2-yl)ethynyl]-4-(difluoromethoxy)-N-[(2S)-1-hydroxy-4-(trifluoromethoxy)butan-2-yl]benzamide] | Urinary albumin (% of vehicle-administered group) ([2]; dose 30 mg/kg twice a day for 7 days): 69 % of vehicle-administered grou
3 | 18 nM | 0.56 nM | Nc1cnc(C#Cc2cc(C(=O)N[C@H]3C[C@H](OC(F)(F)F)C[C@@H]3O)ccc2OC(F)F)cn1 [Example 4, 3-[2-(5-Aminopyrazin-2-yl)ethynyl]-4-(difluoromethoxy)-N-[(1S,2S,4S)-2-hydroxy-4-(trifluoromethoxy)cyclopentyl]benzamide] | Urinary albumin (% of vehicle-administered group) ([2]; dose 25 mg/kg twice a day for 7 days): 69 % of vehicle-administered grou
4 | 20 nM | 5.1 nM | Nc1cnc(/C(F)=C/c2cc(C(=O)N[C@H]3CC4(CC4)C[C@@H]3O)ccc2OC(F)F)cn1 [Example 26, 3-[(1Z)-2-(5-Aminopyrazin-2-yl)-2-fluoroethenyl]-4-(difluoromethoxy)-N-[(5S,6S)-6-hydroxyspiro[2.4]heptan-5-yl]benzamide] | 
5 | 83 nM | 2.5 nM | NC(=O)c1ncc2cc(-c3cc(C(=O)N[C@H]4CCCC[C@@H]4O)ccc3C(F)(F)F)ccn12 [Example 14, 7-(5-{[(1S,2S)-2-Hydroxycyclohexyl]carbamoyl}-2-(trifluoromethyl)phenyl)imidazo[1,5-a]pyridine-3-carboxamide] | Urinary albumin (% of vehicle-administered group) [2, 4]: 76 % of vehicle-administered grou
6 | 350 nM | 60 nM | NC(=O)c1ncc2cc(-c3cc(C(=O)N[C@H]4CC(F)(F)CC[C@@H]4O)cnc3C(F)(F)F)ccn12 [Example 41, 5-{3-Carbamoylimidazo[1,5-a]pyridin-7-yl}-N-[(1S,2S)-5,5-difluoro-2-hydroxycyclohexyl]-6-(trifluoromethyl)pyridine-3-carboxamide] | 
7 | 19 nM | 1.7 nM | Nc1cnc(/C(F)=C/c2cc(C(=O)N[C@H]3CC(F)(F)CC[C@@H]3O)ccc2OC(F)F)cn1 [Example 25, 3-[(1Z)-2-(5-Aminopyrazin-2-yl)-2-fluoroethenyl]-N-[(1S,2S)-5,5-difluoro-2-hydroxycyclohexyl]-4-(difluoromethoxy)benzamide] | 
8 | 3.6 nM | 0.86 nM | Nc1ncc(C#Cc2cc(C(=O)N[C@H]3C[C@H](OC(F)(F)F)C[C@@H]3O)ccc2OC(F)F)cn1 [Example 3, 3-[2-(2-Aminopyrimidin-5-yl)ethynyl]-4-(difluoromethoxy)-N-[(1S,2S,4S)-2-hydroxy-4-(trifluoromethoxy)cyclopentyl]benzamide] | Urinary albumin (% of vehicle-administered group) [2, 4]: 78 % of vehicle-administered grou
9 | 11 nM | 0.27 nM | Nc1ncc(C#Cc2cc(C(=O)N[C@H]3CC4(CC4)C[C@@H]3O)ccc2OC(F)F)cn1 [Example 21, 3-[2-(2-Aminopyrimidin-5-yl)ethynyl]-4-(difluoromethoxy)-N-[(5S,6S)-6-hydroxyspiro[2.4]heptan-5-yl]benzamide] | 
10 | 13 nM | 7.5 nM | CCc1ccc(C(=O)N[C@H]2C[C@H](OC(F)(F)F)C[C@@H]2O)cc1NC(=O)c1cnc(-c2ccccc2)o1 [Example 16, N-(2-Ethyl-5-{[(1S,2S,4S)-2-hydroxy-4-(trifluoromethoxy)cyclopentyl]carbamoyl}phenyl)-2-phenyl-1,3-oxazole-5-carboxamide] | 
11 | 78 nM | 18 nM | NC(=O)c1ncc2cc(-c3cc(C(=O)N[C@H](CO)CCOC(F)(F)F)cnc3C(F)(F)F)ccn12 [Example 30, 5-{3-Carbamoylimidazo[1,5-a]pyridin-7-yl}-N-[(2S)-1-hydroxy-4-(trifluoromethoxy)butan-2-yl]-6-(trifluoromethyl)pyridine-3-carboxamide] | 
12 | 54 nM | 26 nM | CCc1ccc(C(=O)N[C@H](CO)CCOC(F)(F)F)cc1NC(=O)c1cncc(-c2cccc(F)c2)c1 [Example 32, N-(2-Ethyl-5-{[(2S)-1-hydroxy-4-(trifluoromethoxy)butan-2-yl]carbamoyl}phenyl)-5-(3-fluorophenyl)pyridine-3-carboxamide] | 
13 | 150 nM | 22 nM | O=C(N[C@H]1CC2(CC2)C[C@@H]1O)c1ccc(OC(F)F)c(C#Cc2cncnc2)c1 [Example 18, 4-(Difluoromethoxy)-N-[(5S,6S)-6-hydroxyspiro[2.4]heptan-5-yl]-3-[2-(pyrimidin-5-yl)ethynyl]benzamide] | 
14 | 72 nM | 1.2 nM | Nc1cnc(/C(F)=C/c2cc(C(=O)N[C@H]3C[C@H](OC(F)(F)F)C[C@@H]3O)ccc2OC(F)F)cn1 [Example 10, 3-[(1Z)-2-(5-Aminopyrazin-2-yl)-2-fluoroethenyl]-4-(difluoromethoxy)-N-[(1S,2S,4S)-2-hydroxy-4-(trifluoromethoxy)cyclopentyl]benzamide] | Urinary albumin (% of vehicle-administered group) [2, 3]: 69 % of vehicle-administered grou
15 | 99 nM | 12 nM | Nc1ncc(/C(F)=C/c2cc(C(=O)N[C@H]3CCCC[C@@H]3O)ccc2OC(F)F)cn1 [Example 38, 3-[(1Z)-2-(2-Aminopyrimidin-5-yl)-2-fluoroethenyl]-4-(difluoromethoxy)-N-[(1S,2S)-2-hydroxycyclohexyl]benzamide] | 
16 | 29 nM | 7 nM | O=C(N[C@H]1C[C@H](OC(F)(F)F)C[C@@H]1O)c1ccc(OC(F)F)c(C#Cc2cncnc2)c1 [Example 1, 4-(Difluoromethoxy)-N-[(1S,2S,4S)-2-hydroxy-4-(trifluoromethoxy)cyclopentyl]-3-[(pyrimidin-5-yl)ethynyl]benzamide] | Urinary albumin (% of vehicle-administered group) [2, 4]: 70 % of vehicle-administered grou
17 | 3.1 nM | 0.81 nM | NC(=O)c1ncc2cc(-c3cc(C(=O)N[C@H]4C[C@H](OC(F)(F)F)C[C@@H]4O)ccc3C(F)(F)F)ccn12 [Example 29, 7-(5-{[(1S,2S,4S)-2-Hydroxy-4-(trifluoromethoxy)cyclopentyl]carbamoyl}-2-(trifluoromethyl)phenyl)imidazo[1,5-a]pyridine-3-carboxamide] | 
18 | 7.4 nM | 1.8 nM | CCc1ccc(C(=O)N[C@H]2C[C@H](OC(F)(F)F)C[C@@H]2O)cc1NC(=O)c1cncc(-c2cccc(F)c2)c1 [Example 33, N-(2-Ethyl-5-{[(1S,2S,4S)-2-hydroxy-4-(trifluoromethoxy)cyclopentyl]carbamoyl}phenyl)-5-(3-fluorophenyl)pyridine-3-carboxamide] | 
19 | 58 nM | 0.39 nM | Cn1cc(C#Cc2cc(C(=O)N[C@H]3C[C@H](OC(F)(F)F)C[C@@H]3O)ccc2OC(F)F)cn1 [Example 6, 4-(Difluoromethoxy)-N-[(1S,2S,4S)-2-hydroxy-4-(trifluoromethoxy)cyclopentyl]-3-[2-(1-methyl-1H-pyrazol-4-yl)ethynyl]benzamide] | Urinary albumin (% of vehicle-administered group) ([2]; dose 5 mg/kg twice a day for 7 days): 72 % of vehicle-administered grou

Reference: patent publication US20260242343A1, “COMPOUND SERVING AS DDR1 KINASE INHIBITOR, AND MEDICINE” (NIPPON SHINYAKU CO., LTD., priority 2022, published 2026)
